In the NIST ThermoML archive (doi:10.1016/j.tca.2013.04.011):
Numbers after ± are expanded uncertainties.

Settings: 101.33 kPa, Liquid; for speed of sound: Single path-length method; for mass density: Vibrating tube method

CCn1cc[n+](C)c1.F[B-](F)(F)F [1-ethyl-3-methylimidazolium tetrafluoroborate] gave a speed of sound (293.15 K) of 1631 ± 2 m/s, a mass density (293.15 K) of 1283.89 ± 1.9 kg/m3 and a speed of sound (298.15 K) of 1619.4 ± 2 m/s. The mass density (298.15 K) was 1279.91 ± 1.9 kg/m3, the speed of sound (303.15 K) was 1607.6 ± 2 m/s and the mass density (303.15 K) was 1276.26 ± 1.9 kg/m3. It also gave a speed of sound (308.15 K) of 1596.3 ± 2 m/s and a mass density (308.15 K) of 1272.07 ± 1.9 kg/m3.

In the case of O=C1CCCN1 [2-pyrrolidinone], the speed of sound (293.15 K) is reported as 1650.1 ± 1.1 m/s, the mass density (293.15 K) is reported as 1111.28 ± 0.41 kg/m3 and the speed of sound (298.15 K) is reported as 1633.9 ± 1.1 m/s. For the same molecule, the mass density (298.15 K) was 1107.15 ± 0.41 kg/m3, the speed of sound (303.15 K) was 1617.1 ± 1.1 m/s and the mass density (303.15 K) was 1103.02 ± 0.41 kg/m3. The speed of sound (308.15 K) was 1601.8 ± 1.1 m/s and the mass density (308.15 K) was 1098.9 ± 0.4 kg/m3.

CN1CCCC1=O [N-methylpyrrolidone] gave a speed of sound (293.15 K) of 1565.5 ± 1.1 m/s, a mass density (293.15 K) of 1033.23 ± 0.33 kg/m3 and a speed of sound (298.15 K) of 1546 ± 1.1 m/s. The mass density (298.15 K) was 1028.23 ± 0.33 kg/m3, the speed of sound (303.15 K) was 1527.2 ± 1.1 m/s and the mass density (303.15 K) was 1023.46 ± 0.32 kg/m3. The speed of sound (308.15 K) was 1507.4 ± 1.1 m/s and the mass density (308.15 K) was 1018.66 ± 0.32 kg/m3.
